According to patent US20110130380A1, “Heteroaryl Kinase Inhibitors” (priority 2009, published 2011):

Molecular target: Cdk9/cyclinT1 (Homo sapiens, UniProt P50750)
Assay: Cdk9/cyclinT1 IMAP Protocol (fluorescence polarization kinase assay)
Details: Cdk9_cyclinT1_IC50, Table V; generated using one of the two Cdk9/cyclinT1 assays (IMAP or Alpha Screen), not stated which; ATP 6 uM

Cdk9/cyclinT1, sequence (P50750 whole entry): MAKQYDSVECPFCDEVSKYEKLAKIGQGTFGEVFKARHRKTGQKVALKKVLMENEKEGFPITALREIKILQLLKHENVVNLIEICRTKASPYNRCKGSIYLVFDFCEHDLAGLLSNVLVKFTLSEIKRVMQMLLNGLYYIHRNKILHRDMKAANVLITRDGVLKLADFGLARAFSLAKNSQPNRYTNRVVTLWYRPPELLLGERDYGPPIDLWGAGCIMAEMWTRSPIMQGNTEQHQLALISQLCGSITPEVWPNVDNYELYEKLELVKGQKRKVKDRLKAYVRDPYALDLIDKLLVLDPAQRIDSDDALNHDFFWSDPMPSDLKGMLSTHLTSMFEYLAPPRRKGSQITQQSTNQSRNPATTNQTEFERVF
Cdk9/cyclinT1, sequence (O60563 whole entry partner): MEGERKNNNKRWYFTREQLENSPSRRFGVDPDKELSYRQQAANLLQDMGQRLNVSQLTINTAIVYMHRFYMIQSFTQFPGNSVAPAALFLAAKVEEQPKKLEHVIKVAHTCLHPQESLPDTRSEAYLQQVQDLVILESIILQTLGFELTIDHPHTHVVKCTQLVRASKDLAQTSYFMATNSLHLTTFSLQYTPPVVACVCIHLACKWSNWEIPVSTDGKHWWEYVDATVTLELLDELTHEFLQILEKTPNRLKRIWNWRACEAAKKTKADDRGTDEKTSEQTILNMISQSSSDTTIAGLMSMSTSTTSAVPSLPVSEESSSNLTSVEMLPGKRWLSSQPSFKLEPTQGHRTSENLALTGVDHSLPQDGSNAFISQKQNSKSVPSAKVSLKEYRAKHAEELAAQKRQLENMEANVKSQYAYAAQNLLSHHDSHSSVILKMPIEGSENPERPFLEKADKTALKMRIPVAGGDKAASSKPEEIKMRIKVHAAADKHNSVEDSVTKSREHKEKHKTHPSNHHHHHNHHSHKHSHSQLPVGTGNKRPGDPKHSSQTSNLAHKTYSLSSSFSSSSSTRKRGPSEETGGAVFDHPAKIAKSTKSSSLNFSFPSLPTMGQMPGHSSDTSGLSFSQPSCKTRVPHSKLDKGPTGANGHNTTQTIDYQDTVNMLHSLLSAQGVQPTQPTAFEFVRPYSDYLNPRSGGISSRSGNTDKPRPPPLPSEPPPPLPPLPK

Compound	IC50 [µM]
O=C(Nc1cc(-c2cccc(NCC3CCOCC3)n2)c(Cl)cn1)[C@@H]1CCCN(CCF)C1 [Example 10, (R)-1-(2-Fluoro-ethyl)-piperidine-3-carboxylic acid {5′-chloro-6-[(tetrahydro-pyran-4-ylmethyl)-amino]-[2,4′]bipyridinyl-2′-yl}-amide]	0.164
CN1CC(C(=O)Nc2cc(-c3cccc(NCC4CCOCC4)n3)c(Cl)cn2)CC1=O (stereo not drawn) [Example 60, 1-Methyl-5-oxo-pyrrolidine-3-carboxylic acid {5′-chloro-6-[(tetrahydro-pyran-4-ylmethyl)-amino]-[2,4′]bipyridinyl-2′-yl}-amide]	0.009
COC(=O)N1CCC[C@H](C(=O)Nc2cc(-c3nc(N[C@@H](C)C4CCOCC4)ccc3Cl)c(Cl)cn2)C1 [Example 154, (S)-3-{3,5′-Dichloro-6-[(S)-1-(tetrahydro-pyran-4-yl)-ethylamino]-[2,4′]bipyridinyl-2′-ylcarbamoyl}-piperidine-1-carboxylic acid methyl ester]	0.015
N[C@@H]1CC[C@H](C(=O)Nc2cc(-c3nc(NCC4CCOCC4)ccc3Cl)c(Cl)cn2)C1 [Example 99, (1S,3R)-3-Amino-cyclopentanecarboxylic acid {3,5′-dichloro-6-[(tetrahydro-pyran-4-ylmethyl)-amino]-[2,4′]bipyridinyl-2′-yl}-amide]	< 0.008
O=C(Nc1cc(-c2cccc(NCC3CCOCC3)n2)c(Cl)cn1)C1CCCOC1 (stereo not drawn) [Example 62, Tetrahydro-pyran-3-carboxylic acid {5′-chloro-6-[(tetrahydro-pyran-4-ylmethyl)-amino]-[2,4′]bipyridinyl-2′-yl}-amide]	0.019
O=C(Nc1cc(-c2cccc(NCC3CCCOC3)n2)c(Cl)cn1)[C@@H]1CCCNC1 (stereo partly drawn) [Example 18, (R)-Piperidine-3-carboxylic acid {5′-chloro-6-[(tetrahydro-pyran-3-ylmethyl)-amino]-[2,4′]bipyridinyl-2′-yl}-amide]	< 0.008
CN(CC1CCOCC1)c1cccc(-c2cc(NC(=O)[C@@H]3CCCNC3)ncc2Cl)n1 [Example 35, (R)-Piperidine-3-carboxylic acid {5′-chloro-6-[methyl-(tetrahydro-pyran-4-ylmethyl)-amino]-[2,4′]bipyridinyl-2′-yl}-amide]	< 0.008
CC(C)(C)OC(=O)N1CCC[C@@H](C(=O)Nc2cc(-c3cccc(NCC4CCOCC4)n3)c(Cl)cn2)C1 [Example 6, (R)-3-{5′-Chloro-6-[(tetrahydro-pyran-4-ylmethyl)-amino]-[2,4′]bipyridinyl-2′-ylcarbamoyl}-piperidine-1-carboxylic acid tert-butyl ester]	0.092
O=C(Nc1cc(-c2cccc(NC3CCOCC3)n2)c(Cl)cn1)[C@@H]1CCCNC1 [Example 33, (R)-Piperidine-3-carboxylic acid [5′-chloro-6-(tetrahydro-pyran-4-ylamino)-[2,4′]bipyridinyl-2′-yl]-amide]	0.076
O=C(Nc1cc(-c2cccc(NC[C@H]3CCCO3)n2)c(Cl)cn1)[C@@H]1CCCNC1 [Example 25, (R)-Piperidine-3-carboxylic acid (5′-chloro-6-{[(R)-1-(tetrahydro-furan-2-yl)methyl]-amino}-[2,4′]bipyridinyl-2′-yl)-amide]	0.047
O=C(Nc1cc(-c2nc(NCC3CCOCC3)ccc2Cl)c(Cl)cn1)[C@@H]1CCCNC1 [Example 75]	< 0.008
CCN1CCC[C@@H](C(=O)Nc2cc(-c3cccc(NCC4CCOCC4)n3)c(Cl)cn2)C1 (single isomer, unassigned) [Example 56]	0.081
C[C@@H]1CNC[C@H](C(=O)Nc2cc(-c3cccc(NCC4CCOCC4)n3)c(Cl)cn2)C1 (single isomer, unassigned) [Example 128]	0.001
O=C(Nc1cc(-c2nc(NCC3CCOCC3)ccc2Cl)c(Cl)cn1)C1CNCCO1 (stereo not drawn) [Example 87, Morpholine-2-carboxylic acid {3,5′-dichloro-6-[(tetrahydro-pyran-4-ylmethyl)-amino]-[2,4′]bipyridinyl-2′-yl}-amide]	0.018
C[C@H]1CC[C@@H](C(=O)Nc2cc(-c3cccc(NCC4CCOCC4)n3)c(Cl)cn2)CN1 (single isomer, unassigned) [Example 141]	< 0.008
O=C(Nc1cc(-c2cccc(NCc3cncc(F)c3)n2)c(Cl)cn1)[C@@H]1CCCNC1 [Example 41, (R)-Piperidine-3-carboxylic acid {5′-chloro-6-[(5-fluoro-pyridin-3-ylmethyl)-amino]-[2,4′]bipyridinyl-2′-yl}-amide]	< 0.008
COCCNc1cccc(-c2cc(NC(=O)[C@@H]3CCCNC3)ncc2Cl)n1 [Example 26, (R)-Piperidine-3-carboxylic acid [5′-chloro-6-(2-methoxy-ethylamino)-[2,4′]bipyridinyl-2′-yl]-amide]	0.032
CCS(=O)(=O)N1CCC[C@H](C(=O)Nc2cc(-c3nc(NCC4CCOCC4)ccc3Cl)c(Cl)cn2)C1 [Example 111, (S)-1-Ethanesulfonyl-piperidine-3-carboxylic acid {3,5′-dichloro-6-[(tetrahydro-pyran-4-ylmethyl)-amino]-[2,4′]bipyridinyl-2′-yl}-amide]	< 0.008
O=C(Nc1cc(-c2cccc(NCC3CCOCC3)n2)c(Cl)cn1)C1CCNCC1 [Example 7, Piperidine-4-carboxylic acid {5′-chloro-6-[(tetrahydro-pyran-4-ylmethyl)-amino]-[2,4′]bipyridinyl-2′-yl}-amide]	0.014
O=C(Nc1cc(-c2cccc(NCC3CCOCC3)n2)c(Cl)cn1)C1(F)CCCNC1 (single isomer, unassigned) [Example 118]	0.214
CC1(C)C[C@H](CNc2cccc(-c3cc(NC(=O)[C@@H]4CCCNC4)ncc3Cl)n2)CCO1 (single isomer, unassigned) [Example 115]	0.001
O=C(Nc1cc(-c2cccc(NCC3CCCOC3)n2)c(Cl)cn1)[C@H]1CCCNC1 (stereo partly drawn) [Example 46, (S)-Piperidine-3-carboxylic acid {5′-chloro-6-[(tetrahydro-pyran-3-ylmethyl)-amino]-[2,4′]bipyridinyl-2′-yl}-amide]	0.056
CC1(C(=O)Nc2cc(-c3cccc(NCC4CCOCC4)n3)c(Cl)cn2)CNCCO1 (stereo not drawn) [Example 145, 2-Methyl-morpholine-2-carboxylic acid {5′-chloro-6-[(tetrahydro-pyran-4-ylmethyl)-amino]-[2,4′]bipyridinyl-2′-yl}-amide]	0.785
CC(C)(C)OC(=O)N1CCC[C@H](C(=O)Nc2cc(-c3cccc(NCc4cccc(F)c4)n3)c(Cl)cn2)C1 [Example 5, (S)-3-[5′-Chloro-6-(3-fluoro-benzylamino)-[2,4′]bipyridinyl-2′-ylcarbamoyl]-piperidine-1-carboxylic acid tert-butyl ester]	0.062

Results, then the compound that gave them:

IC50 [µM]	Compound
0.001	C[C@@H]1CC(CNc2cccc(-c3cc(NC(=O)[C@@H]4CCNC4)ncc3Cl)n2)C[C@H](C)O1 (stereo partly drawn) [Example 170, (R)-Pyrrolidine-3-carboxylic acid {5′-chloro-6-[((2R,6S)-2,6-dimethyl-tetrahydro-pyran-4-ylmethyl)-amino]-[2,4′]bipyridinyl-2′-yl}-amide]
0.001	O=C(Nc1cc(-c2nc(NCC3CCOCC3)ccc2Cl)c(Cl)cn1)C1CCCCNC1 (stereo not drawn) [Example 194, Azepane-3-carboxylic acid {3,5′-dichloro-6-[(tetrahydro-pyran-4-ylmethyl)-amino]-[2,4′]bipyridinyl-2′-yl}-amide]
0.001	CC1(C)COC(CNc2cccc(-c3cc(NC(=O)[C@@H]4CCCNC4)ncc3Cl)n2)CO1 (stereo partly drawn) [Example 218, (R)-Piperidine-3-carboxylic acid {5′-chloro-6-[(5,5-dimethyl-[1,4]dioxan-2-ylmethyl)-amino]-[2,4′]bipyridinyl-2′-yl}-amide]
0.001	O=C(Nc1cc(-c2nc(NCC3CCOCC3)ccc2Cl)c(Cl)cn1)C1CNCCOC1 (stereo not drawn) [Example 191, [1,4]Oxazepane-6-carboxylic acid {3,5′-dichloro-6-[(tetrahydro-pyran-4-ylmethyl)-amino]-[2,4′]bipyridinyl-2′-yl}-amide]
0.006	O=C(Nc1cc(-c2cccc(NCC3CCOCC3)n2)c(Cl)cn1)C1CNCC(F)C1 (stereo not drawn) [Example 168, 5-Fluoro-piperidine-3-carboxylic acid {5′-chloro-6-[(tetrahydro-pyran-4-ylmethyl)-amino]-[2,4′]bipyridinyl-2′-yl}-amide]
0.004	C[C@H]1CC[C@H](C(=O)Nc2cc(-c3ccc(F)c(NCC4CCOCC4)n3)c(Cl)cn2)CN1C (single isomer, unassigned) [Example 197]
0.025	O=C(Nc1cc(-c2nc(NCC3CCOCC3)ccc2F)c(Cl)cn1)C1CNCCOC1 (single isomer, unassigned) [Example 222]
0.001	O=C(Nc1cc(-c2nc(NCC3CCOCC3)ccc2F)c(Cl)cn1)C1CNCCOC1 (stereo not drawn) [Example 204, [1,4]Oxazepane-6-carboxylic acid {5′-chloro-3-fluoro-6-[(tetrahydro-pyran-4-ylmethyl)-amino]-[2,4′]bipyridinyl-2′-yl}-amide]
0.017	C[C@@H]1CC[C@@H](C(=O)Nc2cc(-c3ccc(F)c(NCC4CCOCC4)n3)c(Cl)cn2)CN1C (single isomer, unassigned) [Example 196]
0.001	CC1(C)CO[C@H](CNc2cccc(-c3cc(NC(=O)[C@@H]4CCCNC4)ncc3Cl)n2)CO1 (single isomer, unassigned) [Example 232]
0.009	O=C(Nc1cc(-c2cccc(NCC3CCOCC3)n2)c(Cl)cn1)[C@@H]1CC[C@@H](C(F)(F)F)NC1 (racemic) [Example 161, (3R,6S)-/(3S,6R)-6-Trifluoromethyl-piperidine-3-carboxylic acid {5′-chloro-6-[(tetrahydro-pyran-4-ylmethyl)-amino]-[2,4′]bipyridinyl-2′-yl}-amide]

Same assay, conditions: Cdk9_cyclinT1_IC50, generated using one of the two Cdk9/cyclinT1 assays (IMAP or Alpha Screen), not specified per value; ATP 6 uM

IC50 [µM]	Compound
0.531	O=C(Nc1cc(-c2cncc(F)c2)c(Cl)cn1)[C@@H]1CCCNC1 [Example 308, (R)-Piperidine-3-carboxylic acid (5′-chloro-5-fluoro-[3,4′]bipyridinyl-2′-yl)-amide]
